Read-outs that look alike come from different tables or passages of the source.
Experiments:
Type 3 Parainfluenza = assay: CPE inhibition in KB cells, Type 3 Parainfluenza; format: cell-based; settings: VR >0.5 significant, <0.5 slight activity
Experimental: (§1) They were tested for activity using the virus-induced cytopathogenic effect (CPE) method of Sidwell, et al., (Applied Microbiology 22:797-801, 1971). Briefly, the CPE procedure includes the dissolution of the antiviral agent in a cell culture medium consisting of vitamins, amino acids, serum, buffer, penicillin, streptomycin and indicator dye in water. The virus suspended in the cell culture medium was added to an established monolayer of KB cells, and an equal volume of the antiviral agent was then added within 15 minutes. The infected treated cells were graded following microscopic examination. Controls for each experiment include cell controls (cells and cell culture medium only), virus controls (cells and virus and cell culture medium) and toxicity controls (cells and chemical and cell culture medium).
(§2) The virus rating (VR) system of Sidwell et al, described in Applied Microbiology, supra, was used to evaluate the degree of significance of CPE inhibition.

Measles = Measles virus plaque inhibition (agar overlay); format: cell-based; settings: Measles morbillivirus, 96 h, day 4; for inhibition at 20 µg/mL: 20 μg/ml; for inhibition at 100 µg/mL: 100 μg/ml; for inhibition at 500 µg/mL: 500 μg/ml
Description: In experiments with measles virus, the above method was altered in that the infected cells were covered with an agar-serum-bicarbonate overlay containing the antiviral compounds so that viral plaques could be discerned. These plaques were strained with neutral red dye on day 4 and counted, with any reduction in plaque number resulting from exposure to the antiviral compound determined. The methodology for the experiment is as described by Wear et al (Exptl. and Molecular Pathol. 9:405-417, 1968).

Vaccinia = format: cell-based; settings: KB cells, VR >0.5 significant, <0.5 slight activity
Type 1A Rhino = assay: CPE inhibition in KB cells, Type 1A Rhino; format: cell-based; settings: VR >0.5 significant, <0.5 slight activity
Experimental: as §1, §2

Type 2 Herpes = assay: CPE inhibition in KB cells, Type 2 Herpes; format: cell-based; settings: VR >0.5 significant, <0.5 slight activity
Experimental: as §1, §2

Type 1 Herpes = assay: CPE inhibition in KB cells, Type 1 Herpes; format: cell-based; settings: VR >0.5 significant, <0.5 slight activity
Experimental: as §1, §2

Type 13 Rhino = assay: CPE inhibition in KB cells, Type 13 Rhino; format: cell-based; settings: VR >0.5 significant, <0.5 slight activity
Experimental: as §1, §2

Type 56 Rhino = assay: CPE inhibition in KB cells, Type 56 Rhino; format: cell-based; settings: VR >0.5 significant, <0.5 slight activity
Experimental: as §1, §2

Type 8 Rhino = assay: CPE inhibition in KB cells, Type 8 Rhino; format: cell-based; settings: VR >0.5 significant, <0.5 slight activity
Experimental: as §1, §2

mice = settings: for MST / Survivors Per Total / Average Lung Consolidation / HA Titer Per ml: Drug + MEM; for Average Lung Consolidation: Day 25, scale of 0-4; for HA Titer Per ml: lung homogenates Day 25
in vitro = settings: human, kb cells
Nucleoside Phosphorylase = target: T1, Nucleoside Phosphorylase (Bos taurus, UniProt P55859); assay: Nucleoside Phosphorylase assay (conversion of 1,2,4-triazole-3-carboxamide to its 1-β-D-ribofuranosyl nucleoside); format: biochemical, calf (spleen); settings: pH 7.4, 25°, 5 minutes
T1 construct: purchased Sigma Chemical Co., St. Louis, Mo; host or cells: calf spleen
T1 sequence (P55859 1-289): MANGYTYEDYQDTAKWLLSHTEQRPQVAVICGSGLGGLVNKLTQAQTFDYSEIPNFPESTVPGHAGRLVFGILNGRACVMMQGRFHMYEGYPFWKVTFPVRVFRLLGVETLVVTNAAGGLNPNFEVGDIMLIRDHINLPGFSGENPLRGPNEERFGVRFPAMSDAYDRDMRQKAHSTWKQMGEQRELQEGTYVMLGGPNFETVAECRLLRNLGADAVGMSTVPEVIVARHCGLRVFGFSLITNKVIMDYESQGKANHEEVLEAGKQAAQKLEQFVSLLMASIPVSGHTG
Experimental: 1,2,4-Triazole-3-carboxamide may be converted to 1-β-D-ribofuranosyl- 1,2,4-triazole-3-carboxamide by reaction with the enzyme Nucleoside Phosphorylase at a pH within the range of about 5 to about 9, preferably 7 to 8, at an enzyme concentration of from about 0.015 to about 0.75 mg/ml, preferably about 0.15 mg/ml, and a temperature within the range of about 0° to about 50°C, with the preferred temperature being approximately 25° to about 35°C. Satisfactory results have been obtained when the triazole base is present in a concentration greater than 5×10^^-5 M and ribose-1-phosphate is present at a concentration greater than 2×10^^-5 M. Generally about 0.1 to about 2 hours, preferably about 0.5 to about 1 hour, are required for the reaction. The source of the enzyme may be animal, tissue, or bacteria. The principal bacterial sources are E. coli and […], while a variety of animal sources exist, including beef spleen, rat liver, calf liver, calf thymus, beef liver, monkey brain, horse liver, calf spleen, human erythrocytes, fish skin, and fish muscle. […]
The samples were incubated at 25° for 5 minutes and then frozen in dry ice - isopropanol to stop the reaction. […] Areas of the chromatograms coinciding with 1,2,4-triazole-3-carboxamide were removed and counted to determine the percent of conversion of 1,2,4 -triazole-3-carboxamide to 1-β-D-ribofuranosyl-1,2,4-triazole-3-carboxamide.

influenza A2 virus = format: in vivo, Female Swiss Mice; settings: for Average Lung Consolidation: Day 25, scale of 0-4; for effectiveness against influenza virus: summary in words
[1] = Compound 1, 250 mg/kg/day ip, schedule 1
[2] = Compound 1, 500 mg/kg/day ip, schedule 1
[3] = Compound 1, 1000 mg/kg/day ip, schedule 1
[4] = Compound 1, 250 mg/kg/day ip, Drug + Virus, schedule 1
[5] = Compound 1, 500 mg/kg/day ip, Drug + Virus, schedule 1
[6] = Compound 1, 1000 mg/kg/day ip, Drug + Virus, schedule 1
[7] = Compound 2, 250 mg/kg/day ip, schedule 3
[8] = Compound 2, 500 mg/kg/day ip, schedule 3
[9] = Compound 2, 1000 mg/kg/day ip, schedule 2
[10] = Compound 2, 75 mg/kg/day ip, Drug + Virus, schedule 1
[11] = Compound 2, 250 mg/kg/day ip, Drug + Virus, schedule 3
[12] = Compound 2, 500 mg/kg/day ip, Drug + Virus, schedule 3
[13] = Compound 2, 1000 mg/kg/day ip, Drug + Virus, schedule 2

NC(=O)c1ncn([C@@H]2O[C@H](CO)[C@@H](O)[C@H]2O)n1 [Compound 3, 1-β-D-Ribofuranosyl-1,2,4-triazole-3-carboxamide]
Virus Rating (Type 3 Parainfluenza): 0.6-1.0 | inhibition at 20 µg/mL (Measles): 30% | inhibition at 100 µg/mL (Measles): 94% | inhibition at 500 µg/mL (Measles): 100% | Virus Rating (Vaccinia): 0.9-1.0 | Virus Rating (Type 1A Rhino): 0.6 | Virus Rating (Type 2 Herpes): 1.3 | Virus Rating (Type 1 Herpes): 1.0-1.5 | Virus Rating (Type 13 Rhino): 0.5 | Virus Rating (Type 56 Rhino): 0.9 | Virus Rating (Type 8 Rhino): 0.8

NC(=O)c1nc[nH]n1 [Compound 1, 1,2,4-Triazole-3-carboxamide]
Virus Rating (Type 3 Parainfluenza): 0.5-0.7 | inhibition at 20 µg/mL (Measles): 34% | inhibition at 100 µg/mL (Measles): 97% | inhibition at 500 µg/mL (Measles): 99% | Virus Rating (Vaccinia): 0.8 | Virus Rating (Type 1A Rhino): 0.4-0.5 | Virus Rating (Type 2 Herpes): 0.4 | Virus Rating (Type 1 Herpes): 0.6-0.9 | MST (mice; [1]): > 21.0 days | Survivors Per Total (mice; [1]): 5/5 | MST (mice; [2]): > 21.0 days | Survivors Per Total (mice; [2]): 5/5 | MST (mice; [3]): > 21 days | Survivors Per Total (mice; [3]): 5/5 | toxicity to mice (mice; concentrations as high as 1000 mg/kg/day, intraperitoneally twice daily for 9 days): nontoxic | Virus Rating (Type 13 Rhino): 0.3 | Virus Rating (Type 56 Rhino): 0.3 | MCC (in vitro): 32 to 1000 µg/mL | % Conversion (Nucleoside Phosphorylase; - enzyme): 0.8% | % Conversion (Nucleoside Phosphorylase; - ribose-1-P, + enzyme, 80μg): 1.1% | MST (influenza A2 virus; [4]): 17.5 days | Survivors Per Total (influenza A2 virus; Compound 1, 250 mg/kg/day ip, Drug + Virus, schedule 1 (P<0.05)): 8/10 | Average Lung Consolidation (influenza A2 virus; [4]): 1.4 | MST (influenza A2 virus; [5]): 12.0 days | Survivors Per Total (influenza A2 virus; Compound 1, 500 mg/kg/day ip, Drug + Virus, schedule 1 (P<0.1)): 7/10 | Average Lung Consolidation (influenza A2 virus; [5]): 2.5 | MST (influenza A2 virus; [6]): 15 days | Survivors Per Total (influenza A2 virus; Compound 1, 1000 mg/kg/day ip, Drug + Virus, schedule 1 (P<0.05)): 8/10 | Average Lung Consolidation (influenza A2 virus; [6]): 2.0 | HA Titer Per ml (influenza A2 virus; Compound 1, 1000 mg/kg/day ip, Drug + Virus, schedule 1, lung homogenates Day 25): 1.3 | effectiveness against influenza virus (influenza A2 virus): particularly effective against influenza virus | Virus Rating (Type 8 Rhino): 0.2

NC(=S)c1nc[nH]n1 [Compound 2, 1,2,4-Triazole-3-thiocarboxamide]
Virus Rating (Type 3 Parainfluenza): 0.2-0.4 | inhibition at 20 µg/mL (Measles): 5% | inhibition at 100 µg/mL (Measles): 98% | inhibition at 500 µg/mL (Measles): 100% | Virus Rating (Vaccinia): 0.5 | Virus Rating (Type 1A Rhino): 0.2-0.4 | Virus Rating (Type 2 Herpes): 0.3 | Virus Rating (Type 1 Herpes): 0.4-0.8 | MST (mice; [7]): > 21.0 days | Survivors Per Total (mice; [7]): 5/5 | Average Lung Consolidation (mice; [7]): 0.5 | HA Titer Per ml (mice; [7]): 0 | MST (mice; [8]): 9.0 days | Survivors Per Total (mice; [8]): 4/5 | Average Lung Consolidation (mice; [8]): 2.0 | HA Titer Per ml (mice; [8]): 0 | MST (mice; [9]): 4.2 days | Survivors Per Total (mice; [9]): 0/5 | toxicity to mice (mice; concentrations as low as 250 mg/kg/day, intraperitoneally, same treatment regimen (twice daily for 9 days)): moderately toxic as evidenced by weight loss and death | Virus Rating (Type 13 Rhino): 0.4 | Virus Rating (Type 56 Rhino): 0.4 | MCC (in vitro): ≥ 1 µg/mL | MST (influenza A2 virus; [10]): > 21.0 days | Survivors Per Total (influenza A2 virus; Compound 2, 75 mg/kg/day ip, Drug + Virus, schedule 1 (P<0.001)): 10/10 | Average Lung Consolidation (influenza A2 virus; [10]): 1.0 | MST (influenza A2 virus; [11]): 9.2 days | Survivors Per Total (influenza A2 virus; Compound 2, 250 mg/kg/day ip, Drug + Virus, schedule 3 (P<0.2)): 6/10 | Average Lung Consolidation (influenza A2 virus; [11]): 3.6 | MST (influenza A2 virus; [12]): 7.6 days | Survivors Per Total (influenza A2 virus; Compound 2, 500 mg/kg/day ip, Drug + Virus, schedule 3 (P>0.3)): 5/10 | Average Lung Consolidation (influenza A2 virus; [12]): 2.2 | MST (influenza A2 virus; [13]): 8.3 days | Survivors Per Total (influenza A2 virus; Compound 2, 1000 mg/kg/day ip, Drug + Virus, schedule 2 (P>0.3)): 3/10 | Average Lung Consolidation (influenza A2 virus; [13]): 3.7 | effectiveness against influenza virus (influenza A2 virus): particularly effective against influenza virus | Virus Rating (Type 8 Rhino): 0.3
